Reference: patent US20230248723A1, “PYRROLO[2,3-B]PYRAZINE COMPOUNDS AS CCCDNA INHIBITORS FOR THE TREATMENT OF HEPATITIS B VIRUS (HBV) INFECTION” (Hoffmann-La Roche Inc., priority 2017, published 2023)
Like-named read-outs stand apart in the source and are kept apart here.

What was measured:
[1] = system: HBV DNA; experiment: HBV DNA in culture medium of HBV-infected PHH; format: cell-based; conditions: Hepatitis B virus
Excerpt: FIG. 8: Establishment of dPCR assay for cccDNA quantification. […] A 3.2-kb, linearized plasmid HBV is used as a standard curve for relative quantification of HBV DNA by TaqMan-PCR. […] (B) Testing primer & PCR specificity and removal of excess RC-DNA. In contrast to TaqMan-PCR (relative quantification method), digital PCR (dPCR) is an absolute quantification method without the need of standard curve. […] First step—Testing primer and PCR specificity. Serum-derived HBV (contains RC-DNA, devoid of cccDNA) was used as a DNA template for dPCR using 2 sets of primers (for HBV core and cccDNA region) (Werle-Lapostolle et al., 2004). Samples were amplified by dPCR on QuantStudio 12K Flex Real-Time PCR System (AB); 4 subarrays (256 through-holes) were used for each sample. […] Second step—Removal of excess RC-DNA. PHH seeded in 96-well were infected with HBV. At day 6 pi, cell lysates were digested with Plasmid safe, ATP-dependent, DNAse (PSAD), T5 exonuclease, or, T5 exonuclease followed by EcoRI, for 1 hr at 37° C. Samples were amplified by dPCR using cccDNA primers on QuantStudio 12K Flex Real-Time PCR System (AB); 4 subarrays (256 through-holes) were used for each sample. […] Fresh medium and compound was replenished every 2 day. At day 10 pi, culture media were harvested and measured for HBV DNA, HBsAg, and HBeAg. Albumin was used as a surrogate of in vitro tox marker. Cells were lysed and treated with T5 exonuclease, cccDNA was then measured by dPCR on QuantStudio 12K Flex Real-Time PCR System (AB); 4 subarrays (256 through-holes) were used for each sample. […] Cells were treated with compounds at the indicated concentrations starting from day 3 post infection (patient-derived HBV, GT D). Fresh medium and compound was replenished every 2 day. Cells were harvested at day 10 pi; viral markers and albumin were measured from culture medium.
HBV from sera of CHB individuals were purified using OptiPrep™ (Axis-Shield, Norway) density gradient. Briefly, OptiPrep™ stock solution (60%) was diluted to 50% and 10% in PBS; equal volume of each solution was then added into SW41 tubes (BD Biosciences). Linear gradient was performed by placing the tubes on Gradient Master 108™ (Biocomp) at setting: 800, 25 rpm for 30″. Two hundred microliter (200 μl) of serum was overlaid on the top of gradient and samples were centrifuged at 100,000×g for 2 hours at 4° C. […] Fractions containing the peak of HBV DNA were pooled and used as virus inoculum for all infection experiments. All fractions were stored at −80° C. until used.
Fresh primary human hepatocytes (PXB-PHH) harvested from humanized mice (uPA/SCID mice)—herein called PHH—were obtained from PhoenixBio Co., Ltd (Japan).

[2] = system: albumin (secreted, cellular toxicity marker); experiment: Albumin (in vitro cellular tox marker), multiplex assay, PHH; format: cell-based; conditions: human
Description: Fresh primary human hepatocytes (PXB-PHH) harvested from humanized mice (uPA/SCID mice)—herein called PHH—were obtained from PhoenixBio Co., Ltd (Japan). Cells were seeded on a collagen I-coated plate at the following cell density: 35,000 cells/well (384-well), 70,000 cells/well (96-well), or, 400,000 cells/well (24-well) in modified hepatocyte clonal growth medium (dHCGM). dHCGM is a DMEM medium containing 100 U/ml Penicillin, 100 μg/ml Streptomycin, 20 mM Hopes, 44 mM NaHCO3, 15 μg/ml L-proline, 0.25 μg/ml insulin, 50 nM Dexamethazone, 5 ng/ml EGF, 0.1 mM Asc-2P, 2% DMSO and 10% FBS (Ishida et al., 2015). Cells were cultured at 37° C. incubator in a humidified atmosphere with 5% CO2. Culture medium was replaced 24 h post-plating and every 2 days until harvest.
Following 4 day of maturation with 1 μM MB-1, HLC were incubated with HBV (purified from CHB individuals) at multiplicity of infection (MOI) 10-40 without PEG for 24 hr; virus inoculum was removed the following day. […] Compound treatment in HLC and PHH was started at day 3 post infection. Compound (in powder) was dissolved in DMSO; the final concentration of DMSO added to cells is 1%. Fresh compound was replenished every 2 day until cells were harvested at day 10 (PHH), or day 14 (HLC). Compound effect on HBV and cellular toxicity was measured by multiplex assay (HBsAg, HBeAg, albumin), branched DNA (pgRNA), or digital PCR (cccDNA) and depicted as % of inhibition compared to DMSO control. Graphs were prepared using Spotfire software.
A custom, Luminex-based multiplex assay that simultaneously measured HBeAg, albumin, and HBsAg was developed by Radix BioSolutions (Georgetown, Tex.). This is a sandwich immunoassay; each capture antibody was coupled with xMAP™ Luminex magnetic beads. The dynamic ranges of analyte detection are as follows: HBeAg (1-316 ng/ml), albumin (3.1-10,000 ng/ml), and HBsAg (0.1-100 ng/ml) with coefficient variant (CV) […]. Samples were read on FlexMAP 3D (Luminex) and analyzed by Genedata software.

For `O=C(NC(CO)CO)c1c[nH]c2ncc(C3CC3)nc12` [compound 7], which IC50 ([1]; 240 h, read-out: HBV DNA IC50 (μM) Median, PHH, patient-derived HBV GT A, MOI 40, day 10 pi) is on record?
Its IC50 is 0.025 µM.

And the IC50 ([1]; 240 h, read-out: HBV DNA IC50 (μM) Median, PHH, patient-derived HBV GT B, MOI 40, day 10 pi)?
Its IC50 is 0.023 µM.

What about the IC50 ([1]; 240 h, read-out: HBV DNA IC50 (μM) Median, PHH, patient-derived HBV GT C, MOI 40, day 10 pi) of the same molecule?
Its IC50 is 0.02 µM.

And the IC50 ([1]; 240 h, read-out: HBV DNA IC50 (μM) Median, PHH, patient-derived HBV GT D, MOI 40, day 10 pi (Table 5))?
The IC50 was 0.023 µM.

And the IC50 ([1]; read-out: HBV DNA IC50s, PHH, patient-derived HBV GT A-D)?
Its IC50 is 0.02 to 0.025 µM.

And the IC50 at 7 days ([2]; HepG2.2.15-derived HBV GT D, MOI 40, read-out: In vitro tox albumin IC50 (μM) Median)?
Its IC50 at 7 days is 21.1 µM.

What about the IC50 at 7 days ([2]; HepG2.2.15-derived HBV GT D, MOI 125, read-out: In vitro tox albumin IC50 (μM) Median) of the same molecule?
The IC50 at 7 days was 20.2 µM.

What about the IC50 at 7 days ([2]; primary human hepatocytes (PXB-PHH) infected with HBV, patient-derived HBV (GT D), read-out: In vitro tox albumin IC50 (μM) Median) of the same molecule?
Its IC50 at 7 days is 20.9 µM.

And the IC50 at 7 days ([2]; primary human hepatocytes (PXB-PHH) infected with HBV, patient-derived HBV GT A, MOI 40, day 10 pi, read-out: In vitro tox albumin IC50 (μM) Median)?
Its IC50 at 7 days is 20.3 µM.

And the IC50 at 7 days ([2]; primary human hepatocytes (PXB-PHH) infected with HBV, patient-derived HBV GT B, MOI 40, day 10 pi, read-out: In vitro tox albumin IC50 (μM) Median)?
Its IC50 at 7 days is 19.2 µM.

What about the IC50 at 7 days ([2]; primary human hepatocytes (PXB-PHH) infected with HBV, patient-derived HBV GT C, MOI 40, day 10 pi, read-out: In vitro tox albumin IC50 (μM) Median) of the same molecule?
The IC50 at 7 days was 23.2 µM.

And the IC50 at 7 days ([2]; primary human hepatocytes (PXB-PHH) infected with HBV, patient-derived HBV GT D, MOI 40 (Table 6), read-out: In vitro tox albumin IC50 (μM) Median)?
The IC50 at 7 days was 23.7 µM.

What about the IC50 at 7 days ([2]; primary human hepatocytes (PXB-PHH) infected with HBV, patient-derived HBV GT D, MOI 40, day 10 pi (Table 5), read-out: In vitro tox albumin IC50 (μM) Median) of the same molecule?
Its IC50 at 7 days is 23.7 µM.

What about the IC50 at 7 days ([2]; primary human hepatocytes (PXB-PHH) infected with HBV, patient-derived HBV GT D, MOI 125, read-out: In vitro tox albumin IC50 (μM) Median) of the same molecule?
Its IC50 at 7 days is 20.5 µM.
